Test results: US8715749B2, “Products containing polyphenol(s) and L-arginine” (priority 1998, dated 2014)
“Also recorded” adds a separate entry of the source.

Columns and labels:
[1] = system: Human umbilical vein endothelial cells (HUVEC); test: Nitric oxide production by HUVEC (nitrite in culture medium, Griess reaction); type: cell-based; conditions: for production of nitric oxide by HUVEC (in words): 48 hour incubation
Description: The culture medium used was Medium 200 (Cascade Biologics Inc.) supplemented with Low Serum Growth Supplement (Cascade Biologics Inc.) and 20% fetal calf serum (DAP).
The cocoa procyanidins evaluated were the epicatechin monomer, the dimer, the trimer, the tetramer, the pentamer, and the heptamer. The nitrite content of cocoa procyanidins were evaluated. At the maximal concentration used (100 ? g/ml), no nitrite was detected.
Human umbilical vein endothelial cells (HUVEC) were purchased at primary culture stage from Cascade Biologics Inc. (Portland). Cells were cultured in Medium supplemented with Low Serum Growth Supplement (LSGS) and 20% Fetal Calf Serum (FCS) in 75 cm^2 flasks. The cells were seeded for a week following treatment with trypsin-EDTA (2 ml/flask) at 37° C. under 5% CO2 atmosphere. Trypsin was neutralized upon addition of 3 ml. FCS.
The cell suspension was centrifuged for 10 min. at 1200 rpm and the cell pellet was resuspended in the culture medium described above.
Nitric oxide synthase activity was assessed by measuring the nitrite concentration in the culture medium. HUVEC were used between passage 2 to 13. Cells were cultured in 24-well culture plates at the concentration of 5×10^5 cells ml in Medium 200 containing LSGS (300 μl per well), and 20% CS. After a 24 hour to 48 hour incubation period at 37° C. under a 5% CO2 atmosphere, the cells were used confluent (2.5×10^6 cells). Medium was removed and fresh was added.
Cocoa procyanidin monomer and oligomers were added to the culture medium at 100 μg/ml, 10 μg/ml or 1 μg/ml (final concentration). Controls consisted of cells cultured without the procyanidins. Reference compounds included acetylcholine, ionomycin (NO synthase stimulator via calcium entry), lipopolysaccharide (NO synthase inductor), and N-methyl L-arginine acetate (inhibitor of NO synthase). The reference compounds were used in order to evidence nitrite production from endothelial NO synthesis.
NO production was estimated by measurement of nitrite (NO2) concentration in culture supernatants according to the Griess reaction. Briefly, 50 μl of conditional medium were incubated with 150 μl of Griess reagent (1% sulfanilamide in 30% acetic acid/0.1% N-(1-naphtyl)-ethylenediamine dihydrochloride in 60% acetic acid) at room temperature for 2 min. The absorbance at 540 nm was determined in a Labsystems MCC/340 multiskan. Nitrite concentration was determined by using sodium nitrite as standard and analyzed using ΔSOFT 2.12 software. The cell-free medium and 100 μg/ml of procyanidins contained no detectable nitrite concentrations.
Raw Data^1: Showing the Effect of Cocoa Procyanidins On Nitric Oxide Production by HUVEC ^1Results are expressed as μmol nitrite/10^6 cells/48 h

[2] = system: Aortic rings from New Zealand white rabbits; test: Endothelium dependent relaxation of pre-contracted rabbit aortic rings in organ baths
Description: Aortic rings from New Zealand white rabbits were set up in 20 ml organ baths. […] The cocoa procyanidins tested were the monomer, dimer, trimer, tetramer, pentamer, hexamer.
Rings were incubated for 30′ with these cocoa procyanidins (10^−5M) and re-tested with Ach and cocoa procyanidins (10^−7 to 10^−4). Incubation of the tissue with these cocoa procyanadin(s) attenuated EDR evoked by both the cocoa procyanidins and Ach acutely. The maximum relaxation to Ach pre-incubation, 49±5%; post pentamer incubation, 2±1.4%; post combo 2 incubation, 0.8±0.8%: to pentamer pre-incubation, 46.5±4.5%; post incubation, 6.8±3.2%: to combo 2 pre-incubation, 54.3±7%; post incubation, 1.7±1.1%, n=5).

[3] = system: arterial blood pressure of anesthetized guinea-pigs; test: Arterial blood pressure of anesthetized guinea-pigs after intravenous injection; type: in vivo; conditions: for Hypertension (%)* Exp 1 / Hypertension (%)* Exp 2 / Hypertension (%)* Exp 3 / Hypertension (%)* Exp 4 / Hypertension (%)* Exp 5 / Hypertension (%)* Exp 6: % of control mean arterial blood pressure
Description: Guinea-pigs (around 400 g body weight, male and female) were anesthetized upon injection of 40 mg/kg sodium pentobarbital. The carotid artery was canulated for monitoring of the arterial blood pressure through a Gould pressure transducer (Model P500). Each of the six cocoa procyanidins, at concentrations of 1, 3, 10, and 25 mg/kg, was injected intravenously through the jugular vein. Alterations in blood pressure were recorded on a polygraph.
No marked effect of the vehicle containing DMSO was noted when the dose of 25 mg/kg of the cocoa procyanidin was used (15±5%).
The effects of administering of 1, 3, 10, or 25 mg/kg cocoa procyanidins on arterial blood pressure of anesthetized guinea-pigs was investigated. Upon intravenous injection, the procyanidins monomer and dimer evoked a decrease in blood pressure of about 20%, i.e., not markedly different from injection of solvent alone (15±5%, n=5). […] The rank of potency of the various cocoa procyanidins, considering the highest dose used, was as follows: hexamer=tetramer>pentamer>trimer.

[4] = preliminary experiments, single dose 10^−5 M, rings pre-contracted with norepinephine 10^−5 M

Compound: CC(=O)O.CN[C@@H](CCCNC(=N)N)C(=O)O [LNMA, N-methyl L-arginine acetate, reference compound]
- production of nitric oxide by HUVEC evoked by ionomycin and lipolysaccharide (in words) ([1]; N-methyl L-arginine added to the incubation medium): blocked

Compound: Oc1cc(O)c2c(c1)O[C@H](c1ccc(O)c(O)c1)[C@H](O)C2 [Monomer, epicatechin]
- % Relaxation [2, 4]: 0%
- production of NO from HUVEC, dose dependence (in words) ([1]; 1, 10, 100 μg/ml): marked production but only at 100 μg/ml concentration
- Nitric Oxide Production by HUVEC, Exp. 1 ([1]; cocoa procyanidin 1 μg/ml): 2.3 μmol nitrite/10^6 cells/48 h
- Nitric Oxide Production by HUVEC, Exp. 2 ([1]; cocoa procyanidin 1 μg/ml): 2.5 μmol nitrite/10^6 cells/48 h
- Nitric Oxide Production by HUVEC, Exp. 3 ([1]; cocoa procyanidin 1 μg/ml): 2.6 μmol nitrite/10^6 cells/48 h
- Nitric Oxide Production by HUVEC, Mean ([1]; cocoa procyanidin 1 μg/ml): 2.5 μmol nitrite/10^6 cells/48 h
- Nitric Oxide Production by HUVEC, Exp. 1 ([1]; cocoa procyanidin 10 μg/ml): 2.7 μmol nitrite/10^6 cells/48 h
- Nitric Oxide Production by HUVEC, Exp. 2 ([1]; cocoa procyanidin 10 μg/ml): 2.8 μmol nitrite/10^6 cells/48 h
- Nitric Oxide Production by HUVEC, Exp. 3 ([1]; cocoa procyanidin 10 μg/ml): 2.6 μmol nitrite/10^6 cells/48 h
- Nitric Oxide Production by HUVEC, Mean ([1]; cocoa procyanidin 10 μg/ml): 2.7 μmol nitrite/10^6 cells/48 h
- Nitric Oxide Production by HUVEC, Exp. 1 ([1]; cocoa procyanidin 100 μg/ml): 5.4 μmol nitrite/10^6 cells/48 h
- Nitric Oxide Production by HUVEC, Exp. 2 ([1]; cocoa procyanidin 100 μg/ml): 5.9 μmol nitrite/10^6 cells/48 h
- Nitric Oxide Production by HUVEC, Exp. 3 ([1]; cocoa procyanidin 100 μg/ml): 5.7 μmol nitrite/10^6 cells/48 h
- Nitric Oxide Production by HUVEC, Mean ([1]; cocoa procyanidin 100 μg/ml): 5.7 μmol nitrite/10^6 cells/48 h
- potency of the various procyanidins, NO production (rank) ([1]; highest dose used, 100 μg/ml): dimer>trimer>heptamer=pentmer=tetramer>monomer; also recorded: dimer>trimer>hexamer=pentamer=tetramer>monomer
- Hypertension (%)* Exp 1 ([3]; 1 mg/kg intravenously): 55.32%
- Hypertension (%)* Exp 2 ([3]; 1 mg/kg intravenously): 70.31%
- Hypertension (%)* Exp 3 ([3]; 1 mg/kg intravenously): 70.27%
- Hypertension (%)* Exp 4 ([3]; 1 mg/kg intravenously): 75.99%
- Hypertension (%)* Exp 5 ([3]; 1 mg/kg intravenously): 71.92%
- Hypertension (%)* Exp 6 ([3]; 1 mg/kg intravenously): 77.97%
- Hypertension (%)* Exp 1 ([3]; 3 mg/kg intravenously): 62.99%
- Hypertension (%)* Exp 2 ([3]; 3 mg/kg intravenously): 72.62%
- Hypertension (%)* Exp 3 ([3]; 3 mg/kg intravenously): 74.59%
- Hypertension (%)* Exp 4 ([3]; 3 mg/kg intravenously): 73.33%
- Hypertension (%)* Exp 5 ([3]; 3 mg/kg intravenously): 76.04%
- Hypertension (%)* Exp 6 ([3]; 3 mg/kg intravenously): 70.44%
- Hypertension (%)* Exp 1 ([3]; 10 mg/kg intravenously): 58.95%
- Hypertension (%)* Exp 2 ([3]; 10 mg/kg intravenously): 66.53%
- Hypertension (%)* Exp 3 ([3]; 10 mg/kg intravenously): 70.06%
- Hypertension (%)* Exp 4 ([3]; 10 mg/kg intravenously): 65.79%
- Hypertension (%)* Exp 5 ([3]; 10 mg/kg intravenously): 70.69%
- Hypertension (%)* Exp 6 ([3]; 10 mg/kg intravenously): 66.21%
- Hypertension (%)* Exp 1 ([3]; 25 mg/kg intravenously): 46.93%
- Hypertension (%)* Exp 2 ([3]; 25 mg/kg intravenously): 55.14%
- Hypertension (%)* Exp 3 ([3]; 25 mg/kg intravenously): 63.08%
- Hypertension (%)* Exp 4 ([3]; 25 mg/kg intravenously): 53.95%
- Hypertension (%)* Exp 5 ([3]; 25 mg/kg intravenously): 65.91%
- Hypertension (%)* Exp 6 ([3]; 25 mg/kg intravenously): 58.66%
- rank of potency of the various cocoa procyanidins, hypotension ([3]; considering the highest dose used): hexamer=tetramer>pentamer>trimer>dimer=monomer
- decrease in blood pressure ([3]; intravenous injection, solvent alone 15±5%): about 20%

Compound: lipopolysaccharide [LPS, reference compound]
- production of nitric oxide by HUVEC (in words) ([1]; 100 ng/ml): marked production of nitric oxide
- Nitric Oxide Production by HUVEC, Mean ([1]; LPS 100 mg/ml): 14.4 μmol nitrite/10^6 cells/48 h
- Nitric Oxide Production by HUVEC, Exp. 1 ([1]; LPS 100): 15.6 μmol nitrite/10^6 cells/48 h
- Nitric Oxide Production by HUVEC, Exp. 2 ([1]; LPS 100): 14.3 μmol nitrite/10^6 cells/48 h
- Nitric Oxide Production by HUVEC, Exp. 3 ([1]; LPS 100): 13.2 μmol nitrite/10^6 cells/48 h

Compound: C[C@H](CCC(=O)O)C[C@H](C)C[C@H](C)C(=O)/C=C(\O)[C@H](C)C[C@H](C)C/C=C/[C@@H](C)[C@@H](O)[C@@H](C)[C@@H](O)C[C@@H]1CC[C@@](C)([C@H]2CC[C@@](C)([C@@H](C)O)O2)O1 [Ionomycin, ionomycin, reference compound]
- production of nitric oxide by HUVEC (in words) ([1]; 1 μM): marked production of nitric oxide
- Nitric Oxide Production by HUVEC, Exp. 1 ([1]; Ionomycin 1 μM): 7.8 μmol nitrite/10^6 cells/48 h
- Nitric Oxide Production by HUVEC, Exp. 2 ([1]; Ionomycin 1 μM): 6.3 μmol nitrite/10^6 cells/48 h
- Nitric Oxide Production by HUVEC, Exp. 3 ([1]; Ionomycin 1 μM): 5.4 μmol nitrite/10^6 cells/48 h
- Nitric Oxide Production by HUVEC, Mean ([1]; Ionomycin 1 μM): 6.5 μmol nitrite/10^6 cells/48 h

Compound: CC(=O)OCC[N+](C)(C)C [Acetylcholine, acetylcholine]
- % Relaxation ([2]; acute exposure, dose 10^−5 M): 49 ± 5.1%
- % Relaxation ([2]; acute exposure, dose 10^−6 M): 42.2 ± 4.2%
- % Relaxation ([2]; acute exposure, dose 10^−7 M): 15.2 ± 2.6%
- maximum relaxation to Ach ([2]; pre-incubation, n=5): 49±5%
- % Relaxation [2, 4]: 68%
- Nitric Oxide Production by HUVEC, Exp. 1 ([1]; Acetylcholine 10^−5 M): 2.5 μmol nitrite/10^6 cells/48 h
- Nitric Oxide Production by HUVEC, Exp. 2 ([1]; Acetylcholine 10^−5 M): 2.6 μmol nitrite/10^6 cells/48 h
- Nitric Oxide Production by HUVEC, Exp. 3 ([1]; Acetylcholine 10^−5 M): 2.8 μmol nitrite/10^6 cells/48 h
- Nitric Oxide Production by HUVEC, Mean ([1]; Acetylcholine 10^−5 M): 2.6 μmol nitrite/10^6 cells/48 h
